The IC50 is the point on the concentration scale where inhibition reaches its midpoint. A high value points to lower potency.

21 compounds from patent publication US20260297080A1, “BICYCLIC COMPOUNDS AS CDK INHIBITORS” (BeOne Medicines I GmbH, priority 2022, published 2026) can be followed below.

The target in test [1] is CDK2/Cyclin E1 (Homo sapiens, UniProt P24941). Kind of test: CDK2/Cyclin E1 Biochemical Assay (TR-FRET), 0.060 mM ATP. The note with it: 0.15 μM Rb (Ser780)-biotin substrate, pH7.0, 60 min preincubation, 120 min reaction, room temperature. The method, boiled down:
(§1)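 IC50 was from a four-parameter logistic fit of the 665/620 nm TR-FRET ratio (Eu anti-pRb Ser780 mAb, streptavidin-XL665). Compound (0-10 μM) was preincubated 60 min with enzyme, then reacted 120 min at room temperature with 0.15 μM biotinylated Rb (Ser780) peptide. ATP was 0.015 mM for CDK1/Cyclin B1 and 0.060 mM for CDK2/Cyclin E1; buffer was HEPES pH7.0.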
A general note: In TR-FRET formats the signal depends on donor and acceptor labels being close together.

The target of test [2] is CDK1/Cyclin B1 (Homo sapiens, UniProt P06493). Nature of the test: CDK1/Cyclin B1 Biochemical Assay (TR-FRET), 0.015 mM ATP. The note with it: 0.15 μM Rb (Ser780)-biotin substrate, pH7.0, 60 min preincubation, 120 min reaction, room temperature. In a few lines: as §1
CDK1/Cyclin B1, sequence (P06493 whole entry): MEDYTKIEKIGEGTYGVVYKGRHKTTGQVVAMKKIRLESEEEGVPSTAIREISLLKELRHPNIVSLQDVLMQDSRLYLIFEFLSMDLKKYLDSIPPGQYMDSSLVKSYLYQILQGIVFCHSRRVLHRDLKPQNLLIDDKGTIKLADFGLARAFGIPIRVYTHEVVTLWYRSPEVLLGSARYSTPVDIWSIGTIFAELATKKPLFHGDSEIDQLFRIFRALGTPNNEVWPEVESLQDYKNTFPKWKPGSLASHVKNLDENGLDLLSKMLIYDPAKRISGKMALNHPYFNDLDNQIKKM
CDK1/Cyclin B1, sequence (P14635 whole entry partner): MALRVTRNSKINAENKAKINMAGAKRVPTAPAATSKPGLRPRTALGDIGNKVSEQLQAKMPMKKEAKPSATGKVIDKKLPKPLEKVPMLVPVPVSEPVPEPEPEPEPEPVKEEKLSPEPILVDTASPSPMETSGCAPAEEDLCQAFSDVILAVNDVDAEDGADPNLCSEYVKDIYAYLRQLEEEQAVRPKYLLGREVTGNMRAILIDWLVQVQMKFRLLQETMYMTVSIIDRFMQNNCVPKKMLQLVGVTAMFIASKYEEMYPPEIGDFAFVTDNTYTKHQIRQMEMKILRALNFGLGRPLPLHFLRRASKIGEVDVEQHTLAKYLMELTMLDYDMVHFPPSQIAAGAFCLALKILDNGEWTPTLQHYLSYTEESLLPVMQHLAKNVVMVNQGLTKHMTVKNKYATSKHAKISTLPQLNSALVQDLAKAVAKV

For the compound `CC[C@H](C)NC(=O)O[C@H]1CC[C@@H](c2cc(Nc3ccc4c(c3F)CS(=O)(=O)N4C)n[nH]2)C1` (relative stereo) [Example 258, cis-3-(3-((4-fluoro-1-methyl-2,2-dioxido-1,3-dihydrobenzo[c]isothiazol-5-yl)amino)-1H-pyrazol-5-yl)cyclopentyl((S)-sec-butyl)carbamate], the values for the IC50 in test [1] and in test [2] were 1.5 nM and 37 nM, respectively.

On to `CC1(NC(=O)O[C@H]2CC[C@@H](c3cc(Nc4ccc5c(c4F)CS(=O)(=O)N5C4COC4)n[nH]3)C2)CC1` (relative stereo) [Example 262, cis-3-(3-((4-fluoro-1-(oxetan-3-yl)-2,2-dioxido-1,3-dihydrobenzo[c]isothiazol-5-yl)amino)-1H-pyrazol-5-yl)cyclopentyl(1-methylcyclopropyl)carbamate], for which the IC50 is 1.3 nM in test [1] and 33 nM in test [2].

Turning to `[2H]C([2H])([2H])N1c2ccc(Nc3cc([C@@H]4CC[C@H](OC(=O)N[C@@H](C)CC)C4)[nH]n3)c(F)c2CS1(=O)=O` (relative stereo) [Example 269, cis-3-(3-((4-fluoro-1-(methyl-d3)-2,2-dioxido-1,3-dihydrobenzo[c]isothiazol-5-yl)amino)-1H-pyrazol-5-yl)cyclopentyl((S)-sec-butyl)carbamate], the IC50 in test [1] came out at 5.6 nM; in test [2] it was 61 nM.

On to `[2H]C([2H])([2H])N1c2ccc(Nc3cc([C@@H]4CC[C@H](OC(=O)NC5(C)CC5)C4)[nH]n3)c(F)c2CS1(=O)=O` (relative stereo) [Example 270, cis-3-(3-((4-fluoro-1-(methyl-d3)-2,2-dioxido-1,3-dihydrobenzo[c]isothiazol-5-yl)amino)-1H-pyrazol-5-yl)cyclopentyl(1-methylcyclopropyl)carbamate], for which the IC50 is 1.7 nM in test [1] and 37 nM in test [2].

In the case of `CC[C@H](C)NC(=O)O[C@H]1CC[C@@H](c2cc(Nc3ccc4c(c3F)CS(=O)(=O)N4CCO)n[nH]2)C1` (relative stereo) [Example 273, cis-3-(3-((4-fluoro-1-(2-hydroxyethyl)-2,2-dioxido-1,3-dihydrobenzo[c]isothiazol-5-yl)amino)-1H-pyrazol-5-yl)cyclopentyl((S)-sec-butyl)carbamate], the IC50 in test [1] was determined as 2.5 nM; in test [2] it was 43 nM.

As for `CC1(NC(=O)O[C@H]2CC[C@@H](c3cc(Nc4ccc5c(c4F)CS(=O)(=O)N5CCO)n[nH]3)C2)CC1` (relative stereo) [Example 274, cis-3-(3-((4-fluoro-1-(2-hydroxyethyl)-2,2-dioxido-1,3-dihydrobenzo[c]isothiazol-5-yl)amino)-1H-pyrazol-5-yl)cyclopentyl(1-methylcyclopropyl)carbamate], the IC50 in test [1] came out at 1 nM; in test [2], 22 nM.

Take `CCCNC(=O)O[C@H]1CC[C@@H](c2cc(Nc3ccc4c(c3F)CS(=O)(=O)N4C3CC3)n[nH]2)C1` (relative stereo) [Example 276, cis-3-(3-((1-cyclopropyl-4-fluoro-2,2-dioxido-1,3-dihydrobenzo[c]isothiazol-5-yl)amino)-1H-pyrazol-5-yl)cyclopentyl propylcarbamate]: the IC50 stood at 5 nM in test [1] and 111 nM in test [2].

As for `CC1(NC(=O)O[C@H]2CC[C@@H](c3cc(Nc4ccc5c(c4F)CS(=O)(=O)N5C4CC4)n[nH]3)C2)CC1` (relative stereo) [Example 277, cis-3-(3-((1-cyclopropyl-4-fluoro-2,2-dioxido-1,3-dihydrobenzo[c]isothiazol-5-yl)amino)-1H-pyrazol-5-yl)cyclopentyl(1-methylcyclopropyl)carbamate], the figures for the IC50 in test [1] and in test [2] were 1.7 nM and 36 nM, respectively.

As to `CC[C@H](C)NC(=O)O[C@H]1CC[C@@H](c2cc(Nc3ccc4c(c3F)CS(=O)(=O)N4C3CC3)n[nH]2)C1` (relative stereo) [Example 278, cis-3-(3-((1-cyclopropyl-4-fluoro-2,2-dioxido-1,3-dihydrobenzo[c]isothiazol-5-yl)amino)-1H-pyrazol-5-yl)cyclopentyl((S)-sec-butyl)carbamate], the IC50 in test [1] turned out to be 1.3 nM; in test [2], 56 nM.

In the case of `CC(C)NC(=O)O[C@H]1CC[C@@H](c2cc(Nc3cc(F)c4c(c3)CS(=O)(=O)N4)n[nH]2)C1` (relative stereo) [Example 279, cis-3-(3-((7-fluoro-2,2-dioxido-1,3-dihydrobenzo[c]isothiazol-5-yl)amino)-1H-pyrazol-5-yl)cyclopentyl isopropylcarbamate], the values for the IC50 in test [1] and in test [2] were 0.7 nM and 43 nM, respectively.

As to `CC(C)NC(=O)O[C@H]1CC[C@@H](c2cc(Nc3cc(F)c4c(c3)CS(=O)(=O)N4C)n[nH]2)C1` (relative stereo) [Example 280, cis-3-(3-((7-fluoro-1-methyl-2,2-dioxido-1,3-dihydrobenzo[c]isothiazol-5-yl)amino)-1H-pyrazol-5-yl)cyclopentyl isopropylcarbamate], the IC50 in test [1] stood at 10 nM; in test [2], 149 nM.

As for `CC(C)NC(=O)O[C@H]1CC[C@@H](c2cc(Nc3cc(F)c4c(c3)CS(=O)(=O)N4CC(F)(F)F)n[nH]2)C1` (relative stereo) [Example 281, cis-3-(3-((7-fluoro-2,2-dioxido-1-(2,2,2-trifluoroethyl)-1,3-dihydrobenzo[c]isothiazol-5-yl)amino)-1H-pyrazol-5-yl)cyclopentyl isopropylcarbamate], the results for the IC50 in test [1] and in test [2] were 8.1 nM and 131 nM, respectively.

Take `COCN1c2c(F)cc(Nc3cc([C@@H]4CC[C@H](OC(=O)NC(C)C)C4)[nH]n3)cc2CS1(=O)=O` (relative stereo) [Example 282, cis-3-(3-((7-fluoro-1-(methoxymethyl)-2,2-dioxido-1,3-dihydrobenzo[c]isothiazol-5-yl)amino)-1H-pyrazol-5-yl)cyclopentyl isopropylcarbamate]: the IC50 in test [1] worked out at 7.7 nM; in test [2], 141 nM.

As to `CC(C)NC(=O)O[C@H]1CC[C@@H](c2cc(Nc3cc(F)c4c(c3)CS(=O)(=O)N4C3COC3)n[nH]2)C1` (relative stereo) [Example 283, cis-3-(3-((7-fluoro-1-(oxetan-3-yl)-2,2-dioxido-1,3-dihydrobenzo[c]isothiazol-5-yl)amino)-1H-pyrazol-5-yl)cyclopentyl isopropylcarbamate], the values for the IC50 in test [1] and in test [2] were 3 nM and 56 nM, respectively.

As for `[2H]C([2H])([2H])C1c2cc(Nc3cc([C@@H]4CC[C@H](OC(=O)NCCC)C4)[nH]n3)cc(F)c2N(C([2H])([2H])[2H])S1(=O)=O` (relative stereo) [Example 284, cis-3-(3-((7-fluoro-1,3-bis(methyl-d3)-2,2-dioxido-1,3-dihydrobenzo[c]isothiazol-5-yl)amino)-1H-pyrazol-5-yl)cyclopentyl propylcarbamate], the IC50 in test [1] turned out to be 8.3 nM; in test [2], 61 nM.

Turning to `[2H]C([2H])([2H])N1c2c(F)cc(Nc3cc([C@@H]4CC[C@H](OC(=O)N[C@@H](C)CC)C4)[nH]n3)cc2CS1(=O)=O` (relative stereo) [Example 285, cis-3-(3-((7-fluoro-1-(methyl-d3)-2,2-dioxido-1,3-dihydrobenzo[c]isothiazol-5-yl)amino)-1H-pyrazol-5-yl)cyclopentyl((S)-sec-butyl)carbamate], the IC50 is 12 nM in test [1] and 196 nM in test [2].

As to `[2H]C([2H])([2H])C1c2cc(Nc3cc([C@@H]4CC[C@H](OC(=O)N[C@@H](C)CC)C4)[nH]n3)cc(F)c2N(C([2H])([2H])[2H])S1(=O)=O` (relative stereo) [Example 286, cis-3-(3-((7-fluoro-1,3-bis(methyl-d3)-2,2-dioxido-1,3-dihydrobenzo[c]isothiazol-5-yl)amino)-1H-pyrazol-5-yl)cyclopentyl((S)-sec-butyl)carbamate], the IC50 in test [1] was 11 nM; in test [2], 174 nM.

As for `[2H]C([2H])([2H])C1c2cc(Nc3cc([C@@H]4CC[C@H](OC(=O)NC5(C)CC5)C4)[nH]n3)cc(F)c2N(C([2H])([2H])[2H])S1(=O)=O` (relative stereo) [Example 287, cis-3-(3-((7-fluoro-1,3-bis(methyl-d3)-2,2-dioxido-1,3-dihydrobenzo[c]isothiazol-5-yl)amino)-1H-pyrazol-5-yl)cyclopentyl(1-methylcyclopropyl)carbamate], the IC50 in test [1] was determined as 7.7 nM; in test [2], 77 nM.

Turning to `CC(C)NC(=O)O[C@H]1CC[C@@H](c2cc(Nc3cc(F)c4c(c3)CS(=O)(=O)N4C3CC3)n[nH]2)C1` (relative stereo) [Example 288, cis-3-(3-((1-cyclopropyl-7-fluoro-2,2-dioxido-1,3-dihydrobenzo[c]isothiazol-5-yl)amino)-1H-pyrazol-5-yl)cyclopentyl isopropylcarbamate], the values for the IC50 in test [1] and in test [2] were 5.5 nM and 152 nM, respectively.

In the case of `CCCNC(=O)O[C@H]1CC[C@@H](c2cc(Nc3cc4c(cc3F)NS(=O)(=O)C4)n[nH]2)C1` (relative stereo) [Example 293, cis-3-(3-((6-fluoro-2,2-dioxido-1,3-dihydrobenzo[c]isothiazol-5-yl)amino)-1H-pyrazol-5-yl)cyclopentyl propylcarbamate], the IC50 in test [1] is 64 nM; in test [2] it was 1120 nM.

Take `CC[C@H](C)NC(=O)O[C@H]1CC[C@@H](c2cc(Nc3cc4c(cc3F)NS(=O)(=O)C4)n[nH]2)C1` (relative stereo) [Example 294, cis-3-(3-((6-fluoro-2,2-dioxido-1,3-dihydrobenzo[c]isothiazol-5-yl)amino)-1H-pyrazol-5-yl)cyclopentyl((S)-sec-butyl)carbamate]: the IC50 in test [1] was 15 nM; in test [2] it was 359 nM.
